The subject of test [1] is Escherichia coli. Nature of the test: Inhibition of Escherichia coli MurD assessed as residual activity at 250 uM.
For test [2], the system named is Escherichia coli. Nature of the test: Inhibition of Escherichia coli MurD assessed as residual activity at 500 uM.
For test [3], the system named is Escherichia coli. Nature of the test: Inhibition of Escherichia coli MurE assessed as residual activity at 250 uM.
For test [4], the system named is Escherichia coli. The test is described as follows: Inhibition of Escherichia coli MurC assessed as residual activity at 250 uM.
For test [5], the system named is Escherichia coli. The test is described as follows: Inhibition of Escherichia coli MurF assessed as residual activity at 250 uM.
Test [6] in a line: Inhibition of Escherichia coli MurD assessed as residual activity.

Turning to `O=C(O)CC[C@@H](NC(=O)c1ccc(CNc2ccc(/C=C3\SC(=S)NC3=O)cc2)cc1)C(=O)O`, in the test with Escherichia coli [1], the Activity stood at 74%.
Turning to `COC(=O)CC[C@@H](NC(=O)c1ccc(CNc2ccc3[nH]c(=O)[nH]c(=O)c3c2)cc1)C(=O)OC`, the Activity with Escherichia coli [2] is 91%.
In the case of `O=C(O)CC[C@@H](NC(=O)c1ccc(CNc2ccc(/C=C3\SC(=O)NC3=O)cc2)cc1)C(=O)O`, the Activity in the test with Escherichia coli [1] came to 70%.
With `COC(=O)CC[C@H](NC(=O)c1ccc(CNc2ccc3nc(N)nc(N)c3c2)cc1)C(=O)OC`, the Activity in the test on Escherichia coli [2] was 81%.
In the case of `O=C(O)CC[C@H](NC(=O)c1ccc(CNc2cccc(/C=C3\SC(=O)NC3=O)c2)cc1)C(=O)O`, in the test on Escherichia coli [1], the Activity came out at 87%.
Take `O=C(O)CC[C@@H](NC(=O)c1ccc(CNc2cccc(/C=C3\SC(=S)NC3=O)c2)cc1)C(=O)O`: the values for the Activity in the test on Escherichia coli [3], in the test on Escherichia coli [4] and in the test on Escherichia coli [5] were 96%, 78% and 79%, respectively. For the same molecule, the IC50 in test [6] came out at 174 µM.
With `Nc1nc(=O)c2nc(CNc3ccc(C(=O)N[C@@H](CCC(=O)O)C(=O)O)cc3)cnc2[nH]1`, in the test on Escherichia coli [2], the Activity was found to be 95%.
Turning to `O=C(O)CC[C@@H](NC(=O)c1ccc(CNc2cccc(/C=C3\SC(=O)NC3=O)c2)cc1)C(=O)O`, the Activity in the test on Escherichia coli [1] came to 85%.
On the same count and under the same terms, then `O=C(O)CC[C@H](NC(=O)c1ccc(CNc2ccc(/C=C3\SC(=S)NC3=O)cc2)cc1)C(=O)O`, with 68%.
Take `COC(=O)CC[C@@H](NC(=O)c1ccc(CNc2ccc3nc(N)nc(N)c3c2)cc1)C(=O)OC`: the Activity with Escherichia coli [2] was 87%.
On to `O=C(O)CC[C@H](NC(=O)c1ccc(CNc2ccc(/C=C3\SC(=O)NC3=O)cc2)cc1)C(=O)O`, for which the Activity in the test on Escherichia coli [1] stood at 88%.
For the molecule `COC(=O)CC[C@H](NC(=O)c1ccc(NCc2cnc3[nH]c(N)nc(=O)c3n2)cc1)C(=O)OC`, the Activity in the test with Escherichia coli [2] stood at 96%.
On to `O=C(O)CC[C@H](NC(=O)c1ccc(CNc2cccc(/C=C3\SC(=S)NC3=O)c2)cc1)C(=O)O`, for which the Activity turned out to be 91% with Escherichia coli [3], 76% with Escherichia coli [4] and 77% with Escherichia coli [5]. Further, the IC50 in test [6] amounted to 206 µM.
For `Nc1nc(N)c2cc(NCc3ccc(C(=O)N[C@@H](CCC(=O)O)C(=O)O)cc3)ccc2n1`, in the test with Escherichia coli [2], the Activity was found to be 80%.
In the case of `Nc1nc(N)c2cc(NCc3ccc(C(=O)N[C@H](CCC(=O)O)C(=O)O)cc3)ccc2n1`, the Activity in the test on Escherichia coli [2] was 82%.
Same read-out and setting: then `O=C(O)CC[C@@H](NC(=O)c1ccc(CNc2ccc3[nH]c(=O)[nH]c(=O)c3c2)cc1)C(=O)O`, with 77%; and `COC(=O)CC[C@H](NC(=O)c1ccc(CNc2ccc3[nH]c(=O)[nH]c(=O)c3c2)cc1)C(=O)OC`, with 92%; and `O=C(O)CC[C@H](NC(=O)c1ccc(CNc2ccc3[nH]c(=O)[nH]c(=O)c3c2)cc1)C(=O)O`, with 81%.

(Values after ChEMBL document CHEMBL1139265, “Synthesis and biological evaluation of new glutamic acid-based inhibitors of MurD ligase” (Bioorg Med Chem Lett, 2009).)
